The melting point is the temperature of the solid-liquid transition.

The subject of series [1] is IFN-γ or IL-5 production in human PBMC. Kind of series: Inhibition of Interferon-Gamma (IFN-γ) or IL-5 production in human PBMC assay (MSD technology). It counts as cell-based. Particulars: human PBMC assay or a similar assay; CYTOSTIM stimulation, 20 hours; read-out: mean pIC50 (converted). The method, then: Inhibition of Interferon-Gamma (IFN-γ) or IL-5 Production in Human PBMC (Peripheral Blood Mononuclear Cell) Assay (MSD Technology)
A 96-well plate (96 MicroWell™ Plates Nunclon™—High Flange Design, Fisher Scientific UK, Loughborough, UK) is prepared by initially adding to column 1 ca. 10 mM of test compound dissolved in DMSO. […] The compound is further diluted with DMSO into columns 2 to 9 by 8 successive 4-fold dilutions using the Biomek® 2000 Laboratory Automation Workstation (Beckman Coulter, Inc., Fullerton, Calif.). Column 10 is used as a DMSO negative control (High Signal, 0% response), whilst column 11, which contains 10 mM of the pan-PI3K inhibitor wortmannin, is used as a positive control (Low Signal, 100% response). About 1 μl of compound is transferred to the compound plate using the Biomek® FX.
PBMC cells (peripheral blood mononuclear cells) are prepared from heparinised human blood (using 1% v/v Heparin Sodium 10001 U/ml Endotoxin Free, Leo Laboratories Ltd., Dublin. Ireland, Cat No: PL0043/0149) from normal volunteers using the Accuspin™ System-Histopaque®-1077 essentially (Sigma-Aldrich Company Ltd., Gillingham Dorset, UK). About 20 ml of blood is overlaid onto 15 ml Histopaque® in Accuspin™ tubes. The tube is then centrifuged at about 800 g for ca. 20 minutes. The cells are collected from the interface, washed by centrifugation (ca. 1300 g, ca. 10 minutes) and resuspended in assay medium (Low endotoxin RPMI1640 medium, Cat No: 31870-025, Invitrogen Corporation Invitrogen Ltd, Paisley, UK) containing 10% foetal calf serum (Invitrogen Corporation, Cat No: CT2507), 2 mM L-glutamine (Invitrogen Corporation, Cat No: 25030024), 10 U/ml penicillin and 10 μg/ml streptomycin (Invitrogen Corporation, Cat No: 15140-122). Viable cells are counted by trypan blue staining and diluted to 6.6×10^5 viable cells/ml. About 150 μl of diluted cells are then added to the compound plate and incubated 37 degrees C. for 1 hour prior to addition of 50 μl of 0.125% (v/v) CYTOSTIM (Cat No: 130-092-173, Miltenyi Biotec Ltd., Bisley, Surrey, UK) diluted in assay medium. The assay plate is then incubated at 37° C., 5% CO2, for 20 hours. The supernatant is removed and the concentrations of IFN-γ and IL-5 are determined by electrochemiluminescence assay using the Meso Scale Discovery (MSD) technology (Meso Scale Discovery, Gaithersburg, Md., USA) as described below.
Supernants were assayed using MSD (Meso Scale Discovery) technology using either the ultra sensitive IFN-γ single plex or the IFN-γ/IL-5 multiplex 96-well plates (MA6000). For the IL-5/IFNg multiplex, Human Serum Cytokine Assay Diluent (25 μl) is added to the plates precoated with anti-cytokine antibody and then incubated for 24 hours at 4° C. to prevent non-specific binding. This blocking step is not required for the Ultrasensitive IFN-γ plates. About 25 μl of supernatant from the PBMC plate is then transferred from columns 1-11 to columns 1-11 of the MSD plate using the Biomek FX. About 25 μl of standard (IFN-γ Cat No. Calibrator C0AE, IL-5 Cat No. Calibrator C01AJ, Meso Scale Discovery) are added to column 12 of the MSD plate to generate a standard calibration curve (about 0 to 10000 pg/ml final). Plates are washed after 2 hours shaking with a Skanwasher 300 version B (Skatron Instruments AS. PO Box 8, N-3401 Lier, Norway). […] About 150 μl of Read Buffer T (2×) is added to the plates, which are then read on a MSD Sector 6000. […]

Series [2] addresses CK2 protein kinase (Homo sapiens, UniProt P68400). Particulars: background, literature; cited from earlier work.

Sequence of CK2 protein kinase (P68400 whole entry): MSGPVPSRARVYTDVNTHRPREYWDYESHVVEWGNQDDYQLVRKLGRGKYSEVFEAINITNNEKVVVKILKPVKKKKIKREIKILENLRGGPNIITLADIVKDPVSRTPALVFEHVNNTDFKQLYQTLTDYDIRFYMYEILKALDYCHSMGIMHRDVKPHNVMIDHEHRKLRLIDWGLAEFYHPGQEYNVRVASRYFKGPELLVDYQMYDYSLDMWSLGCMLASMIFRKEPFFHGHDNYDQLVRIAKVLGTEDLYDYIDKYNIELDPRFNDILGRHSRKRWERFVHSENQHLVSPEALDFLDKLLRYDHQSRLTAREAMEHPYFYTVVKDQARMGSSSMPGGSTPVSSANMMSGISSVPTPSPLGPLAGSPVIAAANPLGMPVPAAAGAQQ

For `COc1ncc(-c2cc(NC(=O)c3csc(CN4C[C@@H](C)O[C@@H](C)C4)n3)c3cn[nH]c3c2)cc1NS(=O)(=O)c1ccc(F)cc1F` [N-{6-[5-{[(2,4-difluorophenyl)sulfonyl]amino}-6-(methyloxy)-3-pyridinyl]-1H-indazol-4-yl}-2-{[(2R,6S)-2,6-dimethyl-4-morpholinyl]methyl}-1,3-thiazole-4-carboxamide], in series [1], the IC50 is no more than 10 µM.

Turning to `COc1ncc(-c2cc(NC(=O)c3csc(CN4C[C@@H](C)O[C@@H](C)C4)n3)c3cn[nH]c3c2)cc1NS(=O)(=O)CC(F)(F)F` [2-{[(2R,6S)-2,6-dimethyl-4-morpholinyl]methyl}-N-[6-(6-(methyloxy)-5-{[(2,2,2-trifluoroethyl)sulfonyl]amino}-3-pyridinyl)-1H-indazol-4-yl]-1,3-thiazole-4-carboxamide], in series [1], the IC50 is no more than 10 µM.

Turning to `O=c1cc(N2CCOCC2)oc2c(-c3ccccc3)cccc12` [LY294002], the IC50 in series [2] is 5 to 10 µM.

With `COc1ccccc1S(=O)(=O)Nc1cc(-c2cc(NC(=O)c3csc(CN4C[C@@H](C)O[C@@H](C)C4)n3)c3cn[nH]c3c2)cnc1OC` [2-{[(2R,6S)-2,6-dimethyl-4-morpholinyl]methyl}-N-{6-[6-(methyloxy)-5-({[2-(methyloxy)phenyl]sulfonyl}amino)-3-pyridinyl]-1H-indazol-4-yl}-1,3-thiazole-4-carboxamide], the IC50 in series [1] is no more than 10 µM.

As to `COc1ncc(-c2cc(NC(=O)c3csc(CN4C[C@@H](C)O[C@@H](C)C4)n3)c3cn[nH]c3c2)cc1NS(=O)(=O)c1ccc(F)cc1F` [Example 94, N-{6-[5-{[(2,4-Difluorophenyl)sulfonyl]amino}-6-(methyloxy)-3-pyridinyl]-1H-indazol-4-yl}-2-{[(2R,6S)-2,6-dimethyl-4-morpholinyl]methyl}-1,3-thiazole-4-carboxamide], the melting point fell in the range of 211 to 212 °C.

In the case of `COc1ncc(-c2cc(NC(=O)c3csc(CN4C[C@@H](C)O[C@@H](C)C4)n3)c3cnn(C)c3c2)cc1NS(C)(=O)=O` [2-{[(2R,6S)-2,6-dimethyl-4-morpholinyl]methyl}-N-(1-methyl-6-{6-(methyloxy)-5-[(methylsulfonyl)amino]-3-pyridinyl}-1H-indazol-4-yl)-1,3-thiazole-4-carboxamide], the IC50 in series [1] is no more than 10 µM.

Take `COc1ncc(-c2cc(NC(=O)c3csc(CN4C[C@@H](C)O[C@@H](C)C4)n3)c3cn[nH]c3c2)cc1NS(C)(=O)=O` [2-{[(2R,6S)-2,6-dimethyl-4-morpholinyl]methyl}-N-(6-{6-(methyloxy)-5-[(methylsulfonyl)amino]-3-pyridinyl}-1H-indazol-4-yl)-1,3-thiazole-4-carboxamide]: in series [1], the IC50 was no more than 10 µM.

(Values after patent US8163743B2, “4-carboxamide indazole derivatives useful as inhibitors of PI3-kinases” (GlaxoGroupLimited, priority 2008, dated 2012).)
